According to US20190307818A1, “NOVEL ANTIMICROBIAL COMPOSITIONS AND METHODS OF USE” (priority 2016, published 2019):

Legend:
CRISPR-Cas system = assay: Transformation assay, efficiency of transformation (EOT); type: cell-based, P. aeruginosa PA14; conditions: ΔlasI ΔrhII mutant; both AIs added together
Procedure: Bacteria were grown to the appropriate OD600, washed twice at RT in 300 mM sucrose, and electroporated with 1 μg empty vector plasmid pHERD30T or pCR2SP1 containing a phage-derived sequence specifically targeted for degradation by CRISPR-Cas (Bondy-Denomy, Pawluk et al. 2013). 1 ml LB was added and the bacteria were grown 1 h at 37° C. with shaking, after which they were plated on selective medium, e.g., LB medium containing 50 μg/ml gentamicin, and incubated overnight at 37° C. Bacterial colonies were counted using Image Quant Las 4000 and Image Quant TL software (GE Healthcare). Colony forming units (CFU)/ml were quantified and the efficiency of transformation was calculated as the percentage of colonies transformed by pCR2SP1 compared to those transformed by the empty vector control pHERD30T.
This assay utilizes a plasmid as a proxy for a phage, to quantify the frequency with which a foreign genetic material is identified and targeted for degradation by the host bacterial immune system. For bacterial cells having a functional CRISPR-Cas system, the plasmid will be targeted for destruction, and no colonies will grow on the plate, as antibiotic resistance has been lost.
For cells lacking a CRISPR-Cas system or having an impaired or partially functioning CRISPR-Cas system, the electroporated plasmid evades destruction by the bacterial host and is able to replicate. […]

cas3 = cas3 expression by qRT-PCR; type: cell-based, Pseudomonas aeruginosa PA14; conditions: ΔlasI ΔrhII mutant; 100 μM 3-O—C12-HSL and 100 μM C4-HSL given together; normalized to 5S ribosomal RNA
Procedure: In one example protocol, P. aeruginosa PA14 and mutants were grown overnight at 37° C. with shaking in LB broth. Cultures were back diluted 1:100 and grown to the indicated OD600 in the presence or absence of DMSO, 3-O—C12-HSL, C4—HSL (Sigma) or Baicalein (Cayman Chemical) at the specified concentrations. LB was supplemented with 50 μg/ml Gentamicin where appropriate.
For Quantitative Real Time-PCR (qRT-PCR), bacteria were harvested at the indicated OD600. RNA was purified using Trizol (Ambion), DNAse treated using DNA-free (Ambion), cDNA was synthesized using SuperScript® III Reverse Transcriptase (Invitrogen) and quantified using PerfeCTa® SYBR® Green FastMix®, Low ROX (Quanta Biociences).
Quantitative Real Time-PCR (qRT-PCR) was utilized to determine the relative expression of cas3 in each of these mutant strains. Additionally, 100 μM 3-O—C12-HSL and 100 μM C4-HSL, which are AIs that rescue cas3 expression, were added to the cell culture comprising the mutant strain ΔlasI ΔrhII. It is understood that other concentrations of 3-O—C12-HSL and C4—HSL are also suitable, e.g., the concentrations may be in the range of 2 μM to 100 μM, from 10 μM to 100 μM or from 2 μM to 10 μM. In some embodiments, 2 μM of 3-O—C12-HSL and 10 μM of C4-HSL were used. The expression profiles for cas3 for each strain were then normalized based on expression of 5S ribosomal RNA. […]

[1] = system: P. aeruginosa PA14 ΔlasI ΔrhII CRISPR adaptation; assay: CRISPR adaptation (new spacer integration by PCR); type: cell-based; conditions: ΔlasI ΔrhII strain; AIs 2 μM 3-O—C12-HSL+10 μM C4-HSL given together; Baicalein 100 μM with AIs; vs DMSO
Procedure: FIG. 3. QS inhibitors block CRISPR adaptation and disable QS-mediated bacterial immunity. A P. aeruginosa PA14 ΔlasI ΔrhII QS deficient strain was transformed with foreign DNA (e.g., a CRISPR-targeted plasmid). A single colony from the transformation was re-streaked on selective media containing either DMSO (as a control), AIs (2 μM 3-O—C12-HSL+10 μM C4-HSL), or AIs and a QS inhibitor (2 μM 3-O—C12-HSL+10 μM C4-HSL+100 μM Baicalein). Single colonies were tested for integration of new inserted spacers (conferring immunity) against the CRISPR-targeted plasmid. In particular, PCR primers were designed to amplify specific genomic regions into which spacers were inserted. Primers complementary to the region upstream of the CRISPR region and to the second spacer region were designed, and PCR amplification was utilized to test for the presence of the newly inserted spacer (a process referred to as adaptation).
A P. aeruginosa PA14 ΔlasI ΔrhII QS deficient strain was transformed with foreign DNA (e.g., a CRISPR-targeted plasmid such as pCR2SP1, as described above). A single colony from the transformation was re-streaked on selective medium, e.g., LB medium containing 50 μg/ml gentamicin and either DMSO (as a control), AIs (2 μM 3-O—C12-HSL+10 μM C4-HSL), or both AIs and a QS inhibitor (2 μM 3-O—C12-HSL+[…] C4-HSL+100 μM Baicalein QS inhibitor) and incubated at 37° C. O/N. Single colonies were tested for integration of new immunity spacers against the CRISPR-targeted plasmid by PCR using iProof High-Fidelity DNA Polymerase (Bio-Rad) and primers CR2SP check F+R upstream of the CRISPR2 region and in the second spacer. Thus, PCR primers were designed to amplify the genomic region in which the new spacer was present. Primers targeting a sequence upstream of the CRISPR-Cas region and targeting the second spacer region were designed, and PCR amplification was utilized to test for the presence of the new inserted spacer (a portion of the plasmid sequence inserted between the CRISPR locus and spacers). […]

[2] = system: Wild-type P. aeruginosa pyocyanin production; conditions: previously shown; cited from earlier work

Compound	immune activity (efficiency of transformation) (CRISPR-Cas system)	cas3 expression (cas3)	CRISPR adaptation (fraction of cells in the colony that adapted) [1]	pyocyanin production [2]
CCCCCCCCCC(=O)CC(=O)N[C@H]1CCOC1=O [3-O—C12-HSL]	restored immune activity to nearly WT levels	restore cas3 expression to WT levels	increased the fraction of cells in the colony that adapted	
CCCC(=O)N[C@H]1CCOC1=O [Molecule C4-HSL, N-butyryl-L-homoserine lactone]	restored immune activity to nearly WT levels	restore cas3 expression to WT levels	increased the fraction of cells in the colony that adapted	
meta-bromothiolactone [mBTL]				inhibit pyocyanin production
